System: A549 cells
Assay: Flow cytometry annexin V / propidium iodide in A549 cells
Type: cell-based, human
Details: 15 μM gefitinib

## COc1cc2ncnc(Nc3ccc(F)c(Cl)c3)c2cc1OCCCN1CCOCC1 [gefitinib]
  mode of cytotoxicity (annexin V vs propidium iodide): early apoptosis
